How the values were obtained:
Format in all cases: cell-based, mouse
[1] = system: primary cortical neurons treated with rotenone; experiment: Oxygen consumption rates (XF24e Extracellular Flux Analyzer) in rotenone-treated primary cortical neurons; conditions: after rotenone 65 nM 24 hours, 24 hrs
Method: Rotenone (1.26 mM stock, Sigma, Cat #R8875) was freshly prepared in water prior to each use. Stocks of rotenone were maintained in the dark at −20° C. for up to 6 months. Rotenone was used at 65 μM for neuroblastoma cells and at 65 nM for primary cortical neurons for 4-6 hours to induce oxidative and autophagic stress.
Forskolin (Coleus forskohlii, >98% HPLC, Sigma Aldrich) was prepared in DMSO as 5 mg/ml stocks (stable for up to 6 months if kept in the dark and stored in −20° C. until ready to use). On the day of the experiment, the forskolin aliquot was thawed and cells were treated once with forskolin at a concentration of 1 to up to 10 μM of forskolin in complete media for treating primary cortical neurons or for intraperitoneal administration of PINK1 knockout mice or PINK1 knockout rats.
Rotenone-treated primary neurons were then exposed to 250 μM dibutyryl cyclic AMP (dbt-cAMP) or with the parental or water-soluble form (NKH477) of Forskolin (6.5 μM-8.5 μM, 24 hrs). The basal oxygen consumption rates (OCRs), a proxy for mitochondrial function, were analyzed by using an XF24^e Extracellular Flux Analyzer (Agilent Technologies). The maximal oxygen consumption rates (OCRs), a proxy for maximal buffering capacity of mitochondrial function, were also analyzed by using an XF24^e Extracellular Flux Analyzer in primary cortical neurons treated with 1 μM FCCP, an ionophore that acts as a mitochondrial uncoupler.

[2] = system: primary cortical neurons treated with rotenone; experiment: Extracellular acidification rates (ECARs), proxy for glycolysis, in rotenone-treated primary cortical neurons; conditions: after rotenone 65 nM 24 hours, 6.5 μM-8.5 μM, FIG. 3
Method: Rotenone (1.26 mM stock, Sigma, Cat #R8875) was freshly prepared in water prior to each use. Stocks of rotenone were maintained in the dark at −20° C. for up to 6 months. […]
The extracellular acidification rates (ECARs), a proxy for glycolysis, were also assessed by using an XF24^e Extracellular Flux Analyzer in primary neurons.

[3] = system: primary cortical neurons treated with rotenone; experiment: Image-based analysis of mitochondrial content in dendrites (MAP2B/TOM20 immunostaining); conditions: after rotenone 65 nM; Forskolin/NKH477 6.5 μM-8.5 μM or 250 μM dbt-cAMP; FIG. 4
Excerpt: The rotenone-treated neurons were also studied by image-based analyses of mitochondrial content in dendrites from primary cortical neurons immunostained for dendrites (MAP2B) and for mitochondria (TOM20).

[4] = system: primary cortical neurons treated with rotenone; experiment: Dendrite length analysis (MAP2B immunostaining); conditions: after rotenone 65 nM; Forskolin/NKH477 6.5 μM-8.5 μM or 250 μM dbt-cAMP; FIG. 5
primary cortical neurons = experiment: Rotenone toxicity in primary cortical neurons; conditions: 24 hours

SMILES | spare respiratory capacity (Maximal OCRs-Baseline OCRs) ([1]; 6.5 μM-8.5 μM, 1 μM FCCP, FIG. 2) | baseline mitochondrial respiration (basal OCRs) ([1]; Forskolin or NKH477 6.5 μM-8.5 μM, FIG. 1) | glycolysis (baseline ECARs) [2] | mitochondrial content in dendrites (% of dendrites occupied by mitochondria) [3] | dendrite arbors (total dendrite length per neuron) [4] | LD50 concentration (primary cortical neurons) [nM]
C=C[C@@]1(C)CC(=O)[C@]2(O)[C@@]3(C)[C@@H](O)CCC(C)(C)[C@@H]3[C@H](OC(=O)CCN(C)C)[C@H](OC(C)=O)[C@@]2(C)O1.Cl [NKH477] | completely restored | partially or completely restored | completely restored normal glycolytic function | completely blocked | completely blocked | –
CCCC(=O)Nc1ncnc2c1ncn2[C@@H]1O[C@@H]2COP(=O)(O)O[C@H]2[C@H]1OC(=O)CCC [dbt-cAMP, dibutyryl cyclic AMP] | – | – | – | reversed the loss of mitochondria within dendrites | reversed the loss of dendrites | –
C=C(C)[C@H]1Cc2c(ccc3c2O[C@@H]2COc4cc(OC)c(OC)cc4[C@@H]2C3=O)O1 [rotenone, Rotenone] | – | – | – | – | – | 65

— US11612583B2, “Disease modifying methods for treating neurodegenerative diseases using nootropic agents” (priority 2018, dated 2023)
